Test results published in US8969325B2, “TRPV1 antagonists” (AbbVie Inc., priority 2011, dated 2015).

Legend:
[1] = molecular target: T1, human TRPV1 (Homo sapiens (Human), UniProt Q8NER1); test: Acid Activation Assay (pH 5.0, intracellular Ca2+, FLIPR); format: cell-based; conditions: percentage of the maximal pH 5.0-induced response remaining; recombinant HEK293 hTRPV1 cells; maximum concentration tested 37.5 μM
Description: Dulbecco's modified Eagle's medium (DMEM) with 4.5 m g/mL D-glucose, fetal bovine serum, L-glutamine, and 2-morpholinoethanesulfonic acid (MES) were purchased from Sigma-Aldrich Co. (St. Louis, Mo.). Dulbecco's phosphate-buffered saline (DPBS) with Ca^2+, Mg^2+, and 1 mg/mL D-glucose (pH 7.4), Geneticin®, 0.25% trypsin-1 mM EDTA, and penicillin-streptomycin were purchased from Invitrogen Corp. (Carlsbad, Calif.). The FLIPR® Calcium 4 assay kit was purchased from Molecular Devices (Sunnyvale, Calif.).
The cDNA for human TRPV1 (hTRPV1) was isolated by reverse transcriptase-polymerase chain reaction (RT-PCR) from human small intestine poly A+ RNA supplied by Clontech (Palo Alto, Calif.) using primers designed surrounding the initiation and termination codons identical to the published sequences (Hayes et al. Pain 2000, 88, 205-215). The resulting cDNA PCR products were subcloned into pCIneo mammalian expression vector (Promega) and fully sequenced using fluorescent dye-terminator reagents (Prism, PerkinElmer Applied Biosystems Division) and a PerkinElmer Applied Biosystems Model 373 DNA sequencer or Model 310 genetic analyzer. Expression plasmids encoding the hTRPV1 cDNA were transfected into HEK293 cells using Lipofectamine®. Forty-eight hours after transfection, the neomycin-resistant cells were selected with growth medium containing 800 μg/mL Geneticin (Life Technologies, formerly Gibco BRL). Surviving individual colonies were isolated and screened for TRPV1 activity. Cells expressing recombinant TRPV1 were maintained at 37° C. in DMEM containing 4 mM L-glutamine, 300 μg/mL G418 (Calbiochem) and 10% fetal bovine serum under a humidified 5% CO2 atmosphere.
The functional activity of compounds at the TRPV1 receptor was determined by measurement of intracellular Ca^2+ levels ([Ca^2+]i) using the Fluorescence Imaging Plate Reader (FLIPR)TETRA®. All compounds were tested over a 12-point one-half-log concentration range with 37.5 μM being the maximum concentration tested. Compound stocks, 10 mM, were prepared in DMSO, and diluted serially across a 384-well plate using a Bravo BenchCel workstation (Agilent Technologies, Santa Clara, Calif.). On the day prior to the experiment, the recombinant HEK293 cells expressing human TRPV1 (hTRPV1) were removed from tissue culture flasks and plated in growth medium into black-walled clear-bottom 384-well Biocoat™ poly-D-lysine assay plates (BD Biosciences, Bedford, Mass.) using a Multidrop® dispenser (ThermoScientific, Waltham, Mass.). On the day of the experiment growth medium was removed, and the no-wash FLIPR® Calcium-4 dye (λEX=470-495 nm, λEM=515-575 nm) was added to each well using the Multidrop® dispenser. The plated cells were incubated for 90-120 min in the dark at 25° C. The test compounds dissolved in DMSO were then added to the plates using an Agilent Bravo workstation (Agilent Technologies Inc., Santa Clara, Calif.). Three minutes later, a pH 5.0 solution was added to each well. Reagents were delivered at a rate of 40 μL/sec, and the final assay volume was 80 μL. Acidic pH solutions were prepared by titration of DPBS/MES with 1 N HCl. The intensity of the fluorescence was captured and digitally transferred to an interfaced PC. The maximum peak measured for the concentration range tested was used to calculate the corresponding peak increase in fluorescence over baseline (relative fluorescence units) which was expressed as the percentage (max % remain) of the maximal pH 5.0-induced response.
Table 1 reports the percentage (max % remain) of the maximal pH 5.0-induced response measured for the compounds tested in the recombinant HEK293 cell assay. Most of the compounds tested inhibited calcium flux only partially following TRPV1 activation by the pH 5.0 solution.

[2] = molecular target: T1, human TRPV1; test: Capsaicin Activation Assay (intracellular Ca2+, FLIPR); format: cell-based; conditions: recombinant HEK293 cells expressing hTRPV1, 50 nM capsaicin
Description: (Logan, Utah). Dulbecco's phosphate-buffered saline (D-PBS) (with 1 mg/mL glucose and 3.6 mg/l Na pyruvate, without phenol red), L-glutamine, hygromycin B, and Lipofectamine® were obtained from Life Technologies (Grand Island, N.Y.). G418 sulfate was obtained from Calbiochem-Novabiochem Corp. (San Diego, Calif.). […] (St. Louis, Mo.). […] The cDNA for human TRPV1 (hTRPV1) was isolated by reverse transcriptase-polymerase chain reaction (RT-PCR) from human small intestine poly A+ RNA supplied by Clontech (Palo Alto, Calif.) using primers designed surrounding the initiation and termination codons identical to the published sequences (Hayes et al. […] The resulting cDNA PCR products were subcloned into pCIneo mammalian expression vector (Promega) and fully sequenced using fluorescent dye-terminator reagents (Prism, PerkinElmer Applied Biosystems Division) and a PerkinElmer Applied Biosystems Model 373 DNA sequencer or Model 310 genetic analyzer. Expression plasmids encoding the hTRPV1 cDNA were transfected into HEK293 cells using Lipofectamine®. Forty-eight hours after transfection, the neomycin-resistant cells were selected with growth medium containing 800 μg/mL Geneticin (Life Technologies, formerly Gibco BRL). Surviving individual colonies were isolated and screened for TRPV1 activity. […] Compound stocks, 10 mM, were prepared in DMSO, and diluted serially across a 384-well plate using a Bravo BenchCel workstation (Agilent Technologies, Santa Clara, Calif.). […] On the day prior to the experiment, the recombinant HEK293 cells expressing human TRPV1 (hTRPV1) were removed from tissue culture flasks and plated in growth medium into black-walled clear-bottom 384-well Biocoat™ poly-D-lysine assay plates (BD Biosciences, Bedford, Mass.) using a Multidrop® dispenser (ThermoScientific, Waltham, Mass.). […] Molecular Devices, Sunnyvale, Calif.) was added to each well using the Multidrop® dispenser. […] Fluorescence readings were made at 1 to 5 second intervals over the course of the experimental run.

T1 sequence (Q8NER1 whole entry): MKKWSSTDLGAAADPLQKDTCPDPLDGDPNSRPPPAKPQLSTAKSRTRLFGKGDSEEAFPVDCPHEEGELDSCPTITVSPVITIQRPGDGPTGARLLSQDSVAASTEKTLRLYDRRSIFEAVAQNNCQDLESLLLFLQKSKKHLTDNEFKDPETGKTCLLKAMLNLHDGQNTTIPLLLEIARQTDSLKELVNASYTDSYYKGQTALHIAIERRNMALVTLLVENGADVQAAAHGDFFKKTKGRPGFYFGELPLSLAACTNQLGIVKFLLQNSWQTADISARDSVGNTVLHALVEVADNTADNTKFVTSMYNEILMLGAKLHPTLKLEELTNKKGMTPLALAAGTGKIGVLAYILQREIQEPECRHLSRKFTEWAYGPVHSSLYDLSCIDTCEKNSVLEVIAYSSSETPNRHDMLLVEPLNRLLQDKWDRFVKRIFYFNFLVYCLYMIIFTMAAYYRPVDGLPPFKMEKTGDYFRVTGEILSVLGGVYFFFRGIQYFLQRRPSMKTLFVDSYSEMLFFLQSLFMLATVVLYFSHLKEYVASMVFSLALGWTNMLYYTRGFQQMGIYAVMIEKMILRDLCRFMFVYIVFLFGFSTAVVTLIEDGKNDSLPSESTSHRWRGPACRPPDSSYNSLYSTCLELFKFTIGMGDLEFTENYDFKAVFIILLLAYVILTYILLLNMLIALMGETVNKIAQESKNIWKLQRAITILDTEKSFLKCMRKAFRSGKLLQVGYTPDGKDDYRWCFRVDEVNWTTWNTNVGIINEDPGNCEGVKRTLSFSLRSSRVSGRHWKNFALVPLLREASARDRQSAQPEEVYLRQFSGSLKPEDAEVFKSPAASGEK

Compound	human TRPV1 H^+ (max % remain) [1] [%]	IC50 [2] [nM]
1-(1-methyl-2-oxo-1,2,3,4-tetrahydroquinazolin-5-yl)-3-[(4R)-8-(trifluoromethoxy)-3,4-dihydro-2H-chromen-4-yl]urea [Example 138]	19	38
1-[(2R,4R)-7-chloro-2-(difluoromethyl)-2-methyl-3,4-dihydro-2H-chromen-4-yl]-3-(2-oxo-1,2,3,4-tetrahydroquinolin-7-yl)urea [Example 30]	31	4
1-[(2S,4R)-2-(fluoromethyl)-2-methyl-7-(trifluoromethyl)-3,4-dihydro-2H-chromen-4-yl]-3-(1-methyl-2-oxo-1,2-dihydroquinolin-5-yl)urea [Example 84]	40	23
1-[(4R)-7-chloro-2,2-diethyl-3,4-dihydro-2H-chromen-4-yl]-3-(1-methyl-2-oxo-1,2,3,4-tetrahydroquinazolin-5-yl)urea [Example 145]	7	160
CN1C(=O)NCc2c(NC(=O)N[C@@H]3CC(C)(C)Oc4cc(F)ccc43)cccc21 [Example 1, 1-[(4R)-7-fluoro-2,2-dimethyl-3,4-dihydro-2H-chromen-4-yl]-3-(1-methyl-2-oxo-1,2,3,4-tetrahydroquinazolin-5-yl)urea]	25	10
CN1C(=O)NCc2c(NC(=O)N[C@@H]3CC(CF)(CF)Oc4c3ccc(Cl)c4F)cccc21 [Example 3, 1-[(4R)-7-chloro-8-fluoro-2,2-bis(fluoromethyl)-3,4-dihydro-2H-chromen-4-yl]-3-(1-methyl-2-oxo-1,2,3,4-tetrahydroquinazolin-5-yl)urea]	19	–
CN1C(=O)NCc2c(NC(=O)N[C@@H]3CC(C)(C)Oc4ccccc43)cccc21 [Example 4, 1-[(4R)-2,2-dimethyl-3,4-dihydro-2H-chromen-4-yl]-3-(1-methyl-2-oxo-1,2,3,4-tetrahydroquinazolin-5-yl)urea]	35	–
CN1C(=O)NCc2c(NC(=O)N[C@@H]3CC(C)(C)Oc4c3ccc(F)c4Cl)cccc21 [Example 5, 1-[(4R)-8-chloro-7-fluoro-2,2-dimethyl-3,4-dihydro-2H-chromen-4-yl]-3-(1-methyl-2-oxo-1,2,3,4-tetrahydroquinazolin-5-yl)urea]	24	17
CN1C(=O)NCc2c(NC(=O)N[C@@H]3CC(C)(C)Oc4cc(Cl)ccc43)cccc21 [Example 6, 1-[(4R)-7-chloro-2,2-dimethyl-3,4-dihydro-2H-chromen-4-yl]-3-(1-methyl-2-oxo-1,2,3,4-tetrahydroquinazolin-5-yl)urea]	30	–
CN1C(=O)NCc2c(NC(=O)N[C@@H]3C[C@](C)(CF)Oc4cc(Cl)ccc43)cccc21 [Example 7, 1-[(2R,4R)-7-chloro-2-(fluoromethyl)-2-methyl-3,4-dihydro-2H-chromen-4-yl]-3-(1-methyl-2-oxo-1,2,3,4-tetrahydroquinazolin-5-yl)urea]	27	51
CCN1C(=O)NCc2c(NC(=O)N[C@@H]3CC(C)(C)Oc4ccccc43)cccc21 [Example 8, 1-[(4R)-2,2-dimethyl-3,4-dihydro-2H-chromen-4-yl]-3-(I-ethyl-2-oxo-1,2,3,4-tetrahydroquinazolin-5-yl)urea]	1	94
CN1C(=O)NCc2c(NC(=O)N[C@@H]3CC(CF)(CF)Oc4ccccc43)cccc21 [Example 9, 1-[(4R)-2,2-bis(fluoromethyl)-3,4-dihydro-2H-chromen-4-yl]-3-(1-methyl-2-oxo-1,2,3,4-tetrahydroquinazolin-5-yl)urea]	30	300
CN1C(=O)NCc2c(NC(=O)N[C@@H]3C[C@](C)(C(F)F)Oc4cc(Cl)ccc43)cccc21 [Example 10, 1-[(2R,4R)-7-chloro-2-(difluoromethyl)-2-methyl-3,4-dihydro-2H-chromen-4-yl]-3-(1-methyl-2-oxo-1,2,3,4-tetrahydroquinazolin-5-yl)urea]	19	17
CN1C(=O)NCc2c(NC(=O)N[C@@H]3C[C@@](C)(C(F)F)Oc4cc(Cl)ccc43)cccc21 [Example 11, 1-[(2S,4R)-7-chloro-2-(difluoromethyl)-2-methyl-3,4-dihydro-2H-chromen-4-yl]-3-(1-methyl-2-oxo-1,2,3,4-tetrahydroquinazolin-5-yl)urea]	32	21
CN1C(=O)NCc2c(NC(=O)N[C@@H]3C[C@](C)(C(F)F)Oc4ccccc43)cccc21 [Example 12, 1-[(2R,4R)-2-(difluoromethyl)-2-methyl-3,4-dihydro-2H-chromen-4-yl]-3-(1-methyl-2-oxo-1,2,3,4-tetrahydroquinazolin-5-yl)urea]	28	32
CCC1(CC)C[C@@H](NC(=O)Nc2cccc3c2CNC(=O)N3C)c2ccc(F)cc2O1 [Example 143, 1-[(4R)-2,2-diethyl-7-fluoro-3,4-dihydro-2H-chromen-4-yl]-3-(1-methyl-2-oxo-1,2,3,4-tetrahydroquinazolin-5-yl)urea]	19	–
CN1C(=O)NCc2c(NC(=O)N[C@@H]3CC(C)(C)c4ccccc43)cccc21 [Example 158, 1-[(1R)-3,3-dimethyl-2,3-dihydro-1H-inden-1-yl]-3-(1-methyl-2-oxo-1,2,3,4-tetrahydroquinazolin-5-yl)urea]	35	–
CN1Cc2ccc(NC(=O)N[C@@H]3CC(C)(C)Oc4c(F)cccc43)cc2NC1=O [Example 210, 1-[(4R)-8-fluoro-2,2-dimethyl-3,4-dihydro-2H-chromen-4-yl]-3-(3-methyl-2-oxo-1,2,3,4-tetrahydroquinazolin-7-yl)urea]	60	–
CN1C(=O)CCc2ccc(NC(=O)N[C@@H]3CCOc4c3cccc4C(F)(F)F)cc21 [Example 284, 1-(1-methyl-2-oxo-1,2,3,4-tetrahydroquinolin-7-yl)-3-[(4R)-8-(trifluoromethyl)-3,4-dihydro-2H-chromen-4-yl]urea]	79	–
